In article PMC3361616 (European Journal of Medicinal Chemistry, 2012):
Where a name gives a salt, the structure may show the parent alone. Each block holds one compound with its values, some of them ahead of it.

What was measured:
5HT1A receptor = target: T1, 5HT1A receptor (Homo sapiens, UniProt P08908); assay: NIMH-PDSP radioligand binding, 5HT1A; conditions: for fold increase in binding affinity to the 5HT1A receptor: over compound 8
T1 sequence (P08908 1-422): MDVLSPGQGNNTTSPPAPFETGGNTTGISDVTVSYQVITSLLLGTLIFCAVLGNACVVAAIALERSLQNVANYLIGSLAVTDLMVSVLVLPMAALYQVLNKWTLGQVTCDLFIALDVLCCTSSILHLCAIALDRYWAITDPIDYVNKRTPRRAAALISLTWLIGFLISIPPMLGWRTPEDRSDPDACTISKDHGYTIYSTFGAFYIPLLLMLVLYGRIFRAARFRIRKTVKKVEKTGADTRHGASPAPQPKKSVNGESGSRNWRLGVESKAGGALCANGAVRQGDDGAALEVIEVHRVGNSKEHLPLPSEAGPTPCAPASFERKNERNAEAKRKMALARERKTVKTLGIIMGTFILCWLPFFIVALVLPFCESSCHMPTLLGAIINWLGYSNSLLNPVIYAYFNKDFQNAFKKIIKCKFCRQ

[1] = target: serotonin transporter (SERT) (Homo sapiens, UniProt P31645); assay: NIMH-PDSP radioligand binding, SERT
D4 receptor (DAD4) = target: T2, D4 receptor (DAD4) (Homo sapiens, UniProt P21917); assay: NIMH-PDSP radioligand binding, DAD4
T2 sequence (P21917 1-419): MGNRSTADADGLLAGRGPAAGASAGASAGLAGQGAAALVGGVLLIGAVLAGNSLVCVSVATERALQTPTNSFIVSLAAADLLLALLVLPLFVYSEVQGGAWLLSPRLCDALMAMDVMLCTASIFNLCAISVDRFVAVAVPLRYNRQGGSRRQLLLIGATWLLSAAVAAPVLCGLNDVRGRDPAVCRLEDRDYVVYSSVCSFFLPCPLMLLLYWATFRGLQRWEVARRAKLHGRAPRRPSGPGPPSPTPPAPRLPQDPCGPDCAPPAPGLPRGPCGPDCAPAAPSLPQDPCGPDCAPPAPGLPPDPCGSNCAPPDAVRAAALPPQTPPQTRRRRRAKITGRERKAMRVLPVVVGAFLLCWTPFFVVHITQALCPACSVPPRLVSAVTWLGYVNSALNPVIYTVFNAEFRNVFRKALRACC

Chain of serotonin transporter (SERT) (P31645 whole entry, species assumed): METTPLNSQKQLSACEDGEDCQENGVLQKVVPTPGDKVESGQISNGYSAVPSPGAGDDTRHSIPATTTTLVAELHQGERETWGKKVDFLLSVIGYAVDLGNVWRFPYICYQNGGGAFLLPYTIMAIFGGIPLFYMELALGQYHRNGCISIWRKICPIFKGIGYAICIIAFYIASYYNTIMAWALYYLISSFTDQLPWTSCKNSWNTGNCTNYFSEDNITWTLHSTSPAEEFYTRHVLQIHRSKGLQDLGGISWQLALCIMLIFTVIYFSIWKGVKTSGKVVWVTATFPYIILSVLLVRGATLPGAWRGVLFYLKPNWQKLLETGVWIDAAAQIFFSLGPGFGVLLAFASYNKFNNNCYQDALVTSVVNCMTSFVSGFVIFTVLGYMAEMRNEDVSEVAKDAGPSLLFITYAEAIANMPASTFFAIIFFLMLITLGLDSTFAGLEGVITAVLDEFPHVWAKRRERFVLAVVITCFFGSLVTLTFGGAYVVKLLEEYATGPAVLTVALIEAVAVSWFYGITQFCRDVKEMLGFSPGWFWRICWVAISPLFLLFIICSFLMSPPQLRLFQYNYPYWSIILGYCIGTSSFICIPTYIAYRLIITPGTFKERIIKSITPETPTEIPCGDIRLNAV

SMILES: O=C(CCCCN1CCN(c2ccc(Cl)cc2)CC1)c1nc2ccccc2s1 [Compound 20, 1-(Benzo[d]thiazol-2-yl)-5-(4-(4-chlorophenyl)piperazin-1-yl)pentan-1-one hydrochloride]
fold increase in binding affinity to the 5HT1A receptor (5HT1A receptor): over 3 fold
fold enhancement of binding to SERT ([1]; compared with compound 8): over 2 fold
Ki (D4 receptor (DAD4)): 100 ± 10 nM

SMILES: Clc1ccc(N2CCN(CCCCc3nc4ccccc4s3)CC2)cc1 [Compound 8, 2-(4-(4-(4-Chlorophenyl)piperazin-1-yl)butyl)benzo[d]thiazole]
fold increase in binding to the 5HT1A receptor (5HT1A receptor; compared with compound 4): ~3 fold
fold decrease in binding at the SERT site ([1]; compared with compound 4): 2.6 fold

SMILES: c1ccc2c(c1)CCN(CCCCc1nc3ccccc3s1)C2 [Compound 11, 2-(4-Benzo[d]thiazol-2-yl-butyl)-1,2,3,4-tetrahydro-isoquinoline p-toluenesulfonate]
fold increase in binding affinity to the 5HT1A receptor (5HT1A receptor): about 18 fold

fold decrease in binding affinity at the 5HT1A receptor (5HT1A receptor; compared with compound 22): 2 fold
SMILES: O=C(CCCCN1CCC(c2ccccc2)CC1)c1nc2ccccc2s1 [Compound 23, 1-(Benzo[d]thiazol-2-yl)-5-(4-phenyl-piperidin-1-yl)-pentan-1-one hydrochloride]
